This is an account of results in PubChem BioAssay (NCI).

Some test systems named below: M14 melanoma; HOP-62 NSCLC; SN12C renal; SK-OV-3 ovarian; EKVX NSCLC; RPMI-8226 leukemia; IGROV1 ovarian; HOP-92 NSCLC; K-562 leukemia; OVCAR-8 ovarian.
Experiment in all cases: inhibition of tumour cell growth, NCI panel, 48 h

Several values for one entry are separate records, joined by “and”; a condition that tells them apart may be missing. Equal entries are not always repeated.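 Five compound concentrations were applied to cells in 96-well plates for 48 hours; endpoints were derived by simple linear interpolation of the resulting dose-response curve. GI50: concentration for 50% inhibition of growth. TGI: concentration producing complete growth inhibition.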

In the case of `CCn1c(-c2nonc2N)nc2c(C#CC(C)(C)O)nc(OCCNC)cc21`, the GI50 with M14 melanoma was 8150 nM; with HOP-62 NSCLC it was 7.81 µM; in the test on SN12C renal it was 7.84 µM; in the test with SK-OV-3 ovarian it was 5.74 µM; with EKVX NSCLC, more than 18.3 µM; in the test on RPMI-8226 leukemia, 9.49 µM. Besides, the GI50 with IGROV1 ovarian is 8.13 µM; in the test with HOP-92 NSCLC it was 4.59 µM; with K-562 leukemia it was 10300 nM; in the test with OVCAR-8 ovarian, 7.81 µM. For the same molecule, the TGI in the test on M14 melanoma is 22.6 µM; in the test with HOP-62 NSCLC it was more than 25 µM; in the test with SN12C renal it was more than 25 µM; in the test with SK-OV-3 ovarian, more than 25 µM; in the test with EKVX NSCLC it was more than 25 µM; with RPMI-8226 leukemia, more than 25 µM. The TGI is more than 25 µM in the test with IGROV1 ovarian, 14.5 µM in the test on HOP-92 NSCLC, more than 25 µM in the test with K-562 leukemia and more than 25 µM in the test with OVCAR-8 ovarian.
For `O=C1c2cc(Cl)ccc2-c2c1c1ccc([N+](=O)[O-])cc1c(=O)n2CCCBr`, the GI50 with M14 melanoma is 3910 nM; with HOP-62 NSCLC, 2.46 µM; with SN12C renal, 2.5 µM; in the test on SK-OV-3 ovarian, 7.79 µM; with EKVX NSCLC it was more than 100 µM; in the test on RPMI-8226 leukemia, 3.66 µM. The GI50 in the test on IGROV1 ovarian was 5.77 µM; in the test on HOP-92 NSCLC, 0.539 µM; with K-562 leukemia, 4460 nM; in the test on OVCAR-8 ovarian it was 8.35 µM. Besides, the TGI is 64.2 µM with M14 melanoma; 23 µM in the test on HOP-62 NSCLC; 8.89 µM in the test with SN12C renal; more than 100 µM in the test with SK-OV-3 ovarian; more than 100 µM with EKVX NSCLC; 96 µM in the test on RPMI-8226 leukemia. Further, the TGI in the test on IGROV1 ovarian is 90.8 µM; in the test on HOP-92 NSCLC, 8.98 µM; in the test on K-562 leukemia, more than 100 µM; in the test on OVCAR-8 ovarian it was more than 100 µM.
In the case of `COc1ccccc1/C=C/C(=O)c1ccccc1`, the GI50 with M14 melanoma was 12200 nM; in the test with HOP-62 NSCLC, 18.8 µM; with SN12C renal, 7.55 µM; with SK-OV-3 ovarian, 33.3 µM; with EKVX NSCLC, 11 µM; with RPMI-8226 leukemia it was 0.56 µM. The GI50 in the test with IGROV1 ovarian is 2.2 µM; in the test on HOP-92 NSCLC, 6.3 µM; in the test on K-562 leukemia, 3410 nM; in the test on OVCAR-8 ovarian, 11.2 µM. Further, the TGI with M14 melanoma was 27 µM; in the test with HOP-62 NSCLC, 37 µM; in the test on SN12C renal, 22.9 µM; with SK-OV-3 ovarian, more than 100 µM; with EKVX NSCLC, 28.5 µM; in the test on RPMI-8226 leukemia, 3.16 µM. In addition, the TGI in the test on IGROV1 ovarian is 8.7 µM; in the test on HOP-92 NSCLC, 30.7 µM; in the test with K-562 leukemia, more than 100 µM; in the test on OVCAR-8 ovarian it was 28 µM.
`Cc1sc2nc3c4ccccc4c(NCCCN(C)C)nn3c(=O)c2c1C`: the GI50 was 1770 nM with M14 melanoma; 12.3 µM with HOP-62 NSCLC; 5.14 µM in the test on SN12C renal; 13.4 µM in the test with SK-OV-3 ovarian; 15.7 µM in the test with EKVX NSCLC; 4.8 µM in the test with RPMI-8226 leukemia. Also, the GI50 in the test with IGROV1 ovarian was 5.3 µM; in the test on HOP-92 NSCLC it was 5.57 µM; in the test on K-562 leukemia it was 1930 nM; in the test with OVCAR-8 ovarian, 11 µM. Moreover, the TGI with M14 melanoma is 3.22 µM; with HOP-62 NSCLC, 25.3 µM; with SN12C renal, 21.7 µM; in the test on SK-OV-3 ovarian, 26.3 µM; in the test with EKVX NSCLC it was 35.8 µM; in the test on RPMI-8226 leukemia, 11.7 µM. Moreover, the TGI in the test on IGROV1 ovarian was determined as 24.6 µM; in the test on HOP-92 NSCLC, 20 µM; in the test with K-562 leukemia, 3.9 µM; in the test on OVCAR-8 ovarian, 27.9 µM.
Take `CCOC(=O)c1s/c(=N\Nc2nc3ccccc3cc2C2OCCO2)n(Cc2ccccc2)c1C`: the TGI in the test with M14 melanoma, with HOP-62 NSCLC, with SN12C renal, in the test with SK-OV-3 ovarian, in the test on EKVX NSCLC and with RPMI-8226 leukemia was more than 100 µM throughout. For the same molecule, the TGI in the test with IGROV1 ovarian, with HOP-92 NSCLC, with K-562 leukemia and in the test with OVCAR-8 ovarian was more than 100 µM in each case.
As to `N#CCCN(CCC#N)c1ccc(C(Sc2ccccc2)C(NC(=O)c2cc([N+](=O)[O-])ccc2Cl)C(=O)Sc2ccccc2)cc1` (configuration not stated), the GI50 in the test on M14 melanoma is 1610 nM; in the test on HOP-62 NSCLC, 3.87 µM; in the test with SK-OV-3 ovarian, 7.8 µM; with EKVX NSCLC, 5.74 µM; in the test on IGROV1 ovarian it was 1.49 µM; in the test with K-562 leukemia, 1710 nM. For the same molecule, the GI50 in the test on OVCAR-8 ovarian was 1.63 µM. Further, the TGI in the test on M14 melanoma was 4.07 µM; in the test on HOP-62 NSCLC, 12 µM; with SN12C renal, 4.54 µM and 6.19 µM; in the test on SK-OV-3 ovarian, 13.2 µM; in the test with EKVX NSCLC it was 9.96 µM and 25.5 µM; in the test with RPMI-8226 leukemia it was 5.66 µM. The TGI was 8.99 µM and 4.2 µM with IGROV1 ovarian; 18.7 µM in the test on HOP-92 NSCLC; 7.42 µM and 6.69 µM in the test on K-562 leukemia; 4.95 µM and 3.69 µM in the test with OVCAR-8 ovarian.
As for `CCOP(=O)(OCC)OC(C#N)c1ccc(-c2ccccc2)cc1` (configuration not stated), the TGI with M14 melanoma is 33.3 µM; with HOP-62 NSCLC it was more than 100 µM; in the test on SN12C renal it was 36.8 µM; in the test with SK-OV-3 ovarian, 78.5 µM; in the test on EKVX NSCLC it was more than 100 µM; with RPMI-8226 leukemia, 45.8 µM. The TGI in the test with IGROV1 ovarian was more than 100 µM; with HOP-92 NSCLC it was 52.6 µM; in the test with K-562 leukemia, 40 µM; in the test on OVCAR-8 ovarian, 37.4 µM.
`C/C(CCc1ccccc1)=N\NC(N)=S`: the TGI in the test with M14 melanoma, in the test with HOP-62 NSCLC, with SN12C renal, with SK-OV-3 ovarian, in the test with EKVX NSCLC and in the test with RPMI-8226 leukemia was more than 100 µM each time. The TGI in the test with IGROV1 ovarian, in the test on HOP-92 NSCLC, in the test with K-562 leukemia and in the test with OVCAR-8 ovarian was more than 100 µM in each case.
Consider `Cc1cc2c(cc1C)N(C(=O)CCl)CCN2C(=O)CCl`, for which the GI50 with M14 melanoma was 1080 nM; with HOP-62 NSCLC, 1.71 µM; with SN12C renal it was 0.754 µM; with SK-OV-3 ovarian it was 1.9 µM; with EKVX NSCLC, 1.99 µM; in the test on RPMI-8226 leukemia, 0.571 µM. The GI50 in the test on IGROV1 ovarian was 0.62 µM; with HOP-92 NSCLC, 1.6 µM; with K-562 leukemia it was 378 nM; in the test on OVCAR-8 ovarian, 0.644 µM. Also, the TGI came out at 2.52 µM in the test on M14 melanoma; 3.37 µM in the test on HOP-62 NSCLC; 2.67 µM in the test with SN12C renal; 3.98 µM with SK-OV-3 ovarian; 4.64 µM in the test on EKVX NSCLC; 2.7 µM in the test with RPMI-8226 leukemia. In addition, the TGI is more than 19.9 µM with IGROV1 ovarian, 3.2 µM in the test with HOP-92 NSCLC, 2 µM in the test on K-562 leukemia and 6.13 µM with OVCAR-8 ovarian.
